Type: physicochemical
Text: The directive essentially states that if a material is classified as a surfactant in must pass certain biodegradation protocols. A surfactant was generally defined as a material capable of: 1) reducing the surface tension of water to ≤45 dynes/cm (or ≤45 mN/m) at a concentration of 0.5 wt % of the material in water; 2) forming spreading or adsorption monolayers at an air/water interface; 3) forming emulsions, microemulsions and/or micelles; and 4) adsorption at a water/solid interface. Surface tension of an aqueous solution, fluid, or mixture can readily be determined by various methods understood in the art. Generally, for stable solutions or mixtures, an equilibrium method such as the Wilhelmy plate method or Du Noüy ring method can be utilized. Alternately, for more dynamic systems, a pendant drop method can be utilized. This technique results in a fresh surface for each measurement. This method is also useful to reduce the potential for insoluble hydrophobic impurities or oils which could impact the surface tension measurement resulting in artificially low surface tension values. An example of such a surfactant assessment/classification is illustrated in the flow diagram of FIG. 3. Referring to the protocol illustrated in FIG. 3, the initial assessment is whether or not a 0.5 wt % mixture of the material being tested is soluble in water. Mixtures were prepared by adding 0.5% of the material to distilled water at 20° C. and mixing with a magnetic stir bar for one hour. If the material is soluble in water, as indicated, for example, by the formation of a clear or slightly hazy mixture, then surface tension (σ) is determined. If σ is >45 mN/m, the material is not classified as a surfactant. If σ is ≤45 mN/m, and micelles are not present, the material is not classified as a surfactant. Conversely, if micelles are present, the material is classified as a surfactant. If the material is not soluble in water, and no emulsion is present (e.g. solid particles or gels are present instead), then the material is not classified as a surfactant. If an emulsion is present (e.g. droplets are present) and the emulsion in stable, then σ is determined. If σ is >45 mN/m, the material is not classified as a surfactant. Conversely, if σ is ≤45 mN/m, the material is classified as a surfactant. If the material is not soluble in water, and an emulsion is present (e.g. droplets are present) and the emulsion is not stable, the emulsion is then centrifuged. The (clear) main phase (or supernatant) of the emulsion is further studied and the a is determined. If σ is >45 mN/m, the material is not classified as a surfactant. Conversely, if σ is ≤45 mN/m, and micelles are not present, the material is not classified as a surfactant. […]

Compound: CN(CC(O)COCCC[Si](C)(O[Si](C)(C)C)O[Si](C)(C)C)C[C@H](O)[C@@H](O)[C@H](O)[C@H](O)CO (stereo partly shown) [Example 11, BisH-AGE-NMG]
- solubility in water: generally insoluble
- stability of the mixture in water: stable
- appearance / behaviour of the mixture in water (0.5 wt % mixture in water): formed a hazy mixture
- classification as surfactant / non-surfactant according to the protocol/flow diagram (0.5 wt % of the material in distilled water at 20° C., mixed one hour): surfactant

Source: patent publication US10829718B2, “Detergent composition comprising a carbinol functional trisiloxane” (Dow Silicones Corporation, priority 2016, dated 2020)
